In patent US20240300972A1, “THIOPHENE-BASED LIPIDS” (Oregon State University, priority 2021, published 2024):

Key:
BALB/c mice = experiment: In vivo bioluminescence imaging after administration of Fluc mRNA nanoparticle formulations; set-up: species or system mouse; conditions: for luminescent signals detected by in vivo imaging / degree of transfection (light flux) in the tested series / pattern / origin of luminescence (transfected tissues): intravenous administration; for luminescent signals detected by in vivo imaging / degree of transfection (light flux) in the tested series: mice; for pattern / origin of luminescence (transfected tissues): in vivo and ex vivo organs; for light flux compared to the negative control: normal (50:10:38.5:1.5) and highly PEGylated (50:7:38.5:4.5) formulations; for transfection after intramuscular administration: flanks of mice
Experimental: A nanoparticle formulation including firefly luciferase (Fluc) mRNA was administered to BALB/c mice by intravenous, intramuscular, intravitreal, or subretinal injection. The intravenous injection was performed by tail-vein or retro-orbital injection. Mice that received a dose of nanoparticle formulation were housed until bioluminescence imaging. Bioluminescence imaging is a method to quantify luminescent signals from the subject. Prior to bioluminescence imaging, the mice were sedated with inhalation of isoflurane. The sedated mice received a dose of D-luciferin salt, which is a substrate of firefly luciferase, by intraperitoneal injection at 150 mg/kg 10 minutes prior to bioluminescence imaging. Bioluminescence imaging was performed on the mice with various exposure times ranging from 1 to 300 seconds using IVIS Lumina XRMS from PerkinElmer. To evaluate the protein expression at an organ level, internal organs of a mouse, such as the liver, lungs, kidneys, spleen, lymph nodes, and heart, and external tissues of mouse, such as muscle tissues close to a site of injection, were excised.

[1] = tested on: HeLa (human cervical epithelial cells); experiment: In vitro transfection efficiency of FLuc mRNA LNPs, ONE-Glo Luciferase Assay; type: cell-based; conditions: for transfection profile and cytotoxicity: compared to negative control (PBS) and positive control (MC3 LNPs at the same dose); for dose response of transfection efficiency: 50 vs 200 ng/well
Experimental: (§1) Mammalian cell lines used to measure cytotoxicity and transfection efficiency include HeLa (human cervical epithelial cells), HEK293T/17 (human embryonic kidney cells), HepG2 (human liver epithelial-like cells), and Jurkat E6-1 (human T-lymphocytes). The cells were seeded at 4000 cells/well in a 96-well plate and incubated for 24 hours. The next day, the LNPs of interest were diluted with 1×PBS to 50 ng/ul and administered at predetermined doses to the cells. The cell viability and transfection efficiency were evaluated on the following day (after 24-hour incubation of cells with LNPs). The cell viability was measured with Promega CellTiter-Fluor Cell Viability Assay, and the transfection efficiency was measured with Promega ONE-Glo Luciferase Assay System using Tecan Infinite M200 PRO multimode plate reader instrument. The dose range varied from 50 to 200 ng of nucleic acid per well.

[2] = tested on: HEK293T/17 (human embryonic kidney cells); experiment: as above; type: cell-based; conditions: HEK293T/17, 200 ng (identical dose)
Experimental: as §1

[3] = tested on: HepG2 (human liver epithelial-like cells); experiment: as above; type: cell-based; conditions: HepG2, 200 ng (identical dose)
Experimental: as §1

CCCCC/C=C\C/C=C\CCCCCCCCOC(=O)c1c(NC(=O)CCCCCCC/C=C\C/C=C\CCCCC)sc2c1CCN(C(=O)CCCN(C)C)C2 [35a, (9Z,12Z)-octadeca-9,12-dien-1-yl 6-(4-(dimethylamino)butanoyl)-2-((9Z,12Z)-octadeca-9,12-dienamido)-4,5,6,7-tetrahydrothieno[2,3-c]pyridine-3-carboxylate]
luminescent signals detected by in vivo imaging (BALB/c mice): successful transfection
decrease in transfection efficiency vs positive control ([1]; HeLa, MC3 LNPs at the same dose): up to 4 ×fold
transfection profile and cytotoxicity ([1]; HeLa): favorable transfection profile and cytotoxicity

CCCCC/C=C\C/C=C\CCCCCCCCOC(=O)c1c(NC(=O)CCCCCCC/C=C\C/C=C\CCCCC)sc2c1CCNC2 [34b, (9Z,12Z)-octadeca-9,12-dien-1-yl 2-((9Z,12Z)-octadeca-9,12-dienamido)-4,5,6,7-tetrahydrothieno[2,3-c]pyridine-3-carboxylate]
degree of transfection (light flux) in the tested series (BALB/c mice): highest light flux
luminescent signals detected by in vivo imaging (BALB/c mice): successful transfection
transfection profile and cytotoxicity ([1]; HeLa): favorable transfection profile and cytotoxicity

CCCCC/C=C\C/C=C\CCCCCCCC(=O)Nc1sc2c(c1C(=O)N(CCCCCCCCCCCCCCCCCC)C(=O)CCCCCCC/C=C\C/C=C\CCCCC)CCN(C(=O)CCCN(C)C)C2 [26b, 6-(4-(dimethylamino)butanoyl)-2-((9Z,12Z)-octadeca-9,12-dienamido)-N-((9Z,12Z)-octadeca-9,12-dienoyl)-N-octadecyl-4,5,6,7-tetrahydrothieno[2,3-c]pyridine-3-carboxamide]
luminescent signals detected by in vivo imaging (BALB/c mice): successful transfection
pattern / origin of luminescence (transfected tissues) (BALB/c mice): local transfection
light flux compared to the negative control (BALB/c mice; subretinal administration): greater significant light flux
luciferase signal (BALB/c mice; subretinal administration, “normal” formulation (1.5% PEG)): not detected
dose response of transfection efficiency ([1]; HeLa): greater at 200 ng/well than at 50 ng/well
transfection profile and cytotoxicity ([1]; HeLa): favorable transfection profile and cytotoxicity

CCCCC/C=C\C/C=C\CCCCCCCC(=O)N(C(=O)CCCCCCC/C=C\C/C=C\CCCCC)c1sc2c(c1C(=O)OCC)CCN(C(=O)CCCN(C)C)C2 [19da, ethyl 6-(4-(dimethylamino)butanoyl)-2-((9Z,12Z)—N-((9Z,12Z)-octadeca-9,12-dienoyl)octadeca-9,12-dienamido)-4,5,6,7-tetrahydrothieno[2,3-c]pyridine-3-carboxylate]
transfection after intramuscular administration (BALB/c mice): successful and comparable transfection of local tissues
luminescent signals detected by in vivo imaging (BALB/c mice): successful transfection
pattern / origin of luminescence (transfected tissues) (BALB/c mice): local transfection
light flux compared to the negative control (BALB/c mice; subretinal administration): greater significant light flux
improvement compared to the positive control ([1]; HeLa cell line, 200 ng treatment): ~5 fold
dose response of transfection efficiency ([1]; HeLa): greater at 200 ng/well than at 50 ng/well
transfection profile and cytotoxicity ([1]; HeLa): favorable transfection profile and cytotoxicity
decline compared to the positive control [2]: 3 fold
decline compared to the positive control [3]: 3 fold

6-(3-(dimethylamino)propanoyl)-2-((9Z,12Z)-octadeca-9,12-dienamido)-N-((9Z,12Z)-octadeca-9,12-dienoyl)-N-octadecyl-4,5,6,7-tetrahydrothieno[2,3-c]pyridine-3- [26a]
transfection after intramuscular administration (BALB/c mice): successful and comparable transfection of local tissues
luminescent signals detected by in vivo imaging (BALB/c mice): successful transfection
pattern / origin of luminescence (transfected tissues) (BALB/c mice): local transfection
light flux compared to the negative control (BALB/c mice; subretinal administration): greater significant light flux
dose response of transfection efficiency ([1]; HeLa): greater at 200 ng/well than at 50 ng/well

CCCCC/C=C\C/C=C\CCCCCCCC(=O)Nc1sc2c(c1C(=O)NCCCN(C)C)CCN(C(=O)CCCCCCC/C=C\C/C=C\CCCCC)C2 [29d, N-(3-(dimethylamino)propyl)-2-((9Z,12Z)-octadeca-9,12-dienamido)-6-((9Z,12Z)-octadeca-9,12-dienoyl)-4,5,6,7-tetrahydrothieno[2,3-c]pyridine-3-carboxamide]
luminescent signals detected by in vivo imaging (BALB/c mice): successful transfection
pattern / origin of luminescence (transfected tissues) (BALB/c mice): spleen and lungs
dose response of transfection efficiency ([1]; HeLa): inverse dose response
transfection profile and cytotoxicity ([1]; HeLa): favorable transfection profile and cytotoxicity

CCCCC/C=C\C/C=C\CCCCCCCCOC(=O)c1c(NC(=O)CCCCCCCCCCCCCCCCC)sc2c1CCNC2 [34a, (9Z,12Z)-octadeca-9,12-dien-1-yl 2-stearamido-4,5,6,7-tetrahydrothieno[2,3-c]pyridine-3-carboxylate]
degree of transfection (light flux) in the tested series (BALB/c mice): highest light flux
luminescent signals detected by in vivo imaging (BALB/c mice): successful transfection
pattern / origin of luminescence (transfected tissues) (BALB/c mice): liver and spleen
transfection profile and cytotoxicity ([1]; HeLa): favorable transfection profile and cytotoxicity
